pKd: −log10 of the molar value.
Test: Dissociation constant of compound was evaluated from its IC50 against tryptase at different concentrations

pKd: 10.00
Compound: NC(N)=Nc1ccc(CNC(=O)N2CCN(C(=O)O[C@@H]3CO[C@H]4[C@@H]3OC[C@H]4OC(=O)N3CCN(C(=O)NCc4ccc(N=C(N)N)cc4)CC3)CC2)cc1 [Derivative of APC-2059]

From BindingDB's records for doi:10.1016/s0960-894x(00)00485-6 (Axys Pharmaceuticals, 2001)
